The values that follow come from patent publication US5908832A, “Peptide analog” (University of Houston - Clearlake, priority 1991, dated 1999).

For test [1], the system named is morphine-dependent rats. Kind of test: Naloxone-precipitated abstinence in morphine-dependent rats. It counts as in vivo, Sprague-Dawley rats.
Experimental: Each rat was stereotaxically cannulated in the third ventricle under equithesin anesthesia. Cannula placements were subsequently confirmed by injection of methylene blue dye.
Drugs for third ventricle injection were dissolved in isotonic saline.
Following the rats way infusion period, rats were randomly divided into two treatment groups of seven rats each. Each rat received a third ventricular injection of either 600 ng daY8Ra in 30 μl saline or saline alone. Twenty-eight minutes after conclusion of the above injections, all rats were challenged by 10 μg naloxone HCl in 30 μl saline i.c.v.
Each rat was subsequently observed for 20 minutes, commencing with the onset of naloxone challenge.
The test system of test [2] is morphine-dependent rats. The note with it: 2 μg i.c.v.; cited from earlier work.
In a further test the test system is opiate-naive rats. The following applies: 15 μg i.c.v.; cited from earlier work.
In another test the test system is specific NPFF receptors. The following applies: spinal cord membranes; cited from earlier work.
The test system of test [3] is analgesic effects of morphine. The note with it: in vivo; cited from earlier work.

For the compound `CC(C)C[C@H](NC(=O)[C@@H](N)Cc1ccccc1)C(=O)N[C@@H](Cc1ccccc1)C(=O)N[C@@H](CCC(N)=O)C(=O)N1CCC[C@H]1C(=O)N[C@@H](CCC(N)=O)C(=O)N[C@@H](CCCNC(=N)N)C(=O)N[C@@H](Cc1ccccc1)C(N)=O` [NPFF, Phe-Leu-Phe-Gln-Pro-Gln-Arg-Phe-amide], in the test with morphine-dependent rats [1] (600 ng i.c.v. pretreatment, 10 μg naloxone HCl i.c.v., Example III), the “abstinence syndrome after naloxone challenge vs saline pretreatment (one-way ANOVA)” value was “no significant differences among groups”. Besides, in the test on morphine-dependent rats [1] (morphine-dependent rats, 600 ng i.c.v., observed 14 minutes from onset of injection, before naloxone), the “abstinence signs following the peptide injection itself (total frequency, M±SEM)” value was 3.67±0.99. In addition, the “precipitation of opiate abstinence syndrome” value in the test on morphine-dependent rats [2] is reported as “precipitates opiate abstinence syndrome”. In the test with opiate-naive rats, the “induction of quasi-morphine-abstinence syndrome (QMAS)” value is reported as “induces a quasi-morphine-abstinence syndrome”. Further, the “affinity of the 125I-Y8Fa binding site” value in the test with specific NPFF receptors is “high affinity”. The “effect on analgesic effects of morphine and certain endogenous opioid peptides” value in test [3] is “potently antagonizes”.
